Measured values taken from patent publication US10118901B2 (priority 2013, dated 2018).

How the values were obtained:
[1] = biological target: HDAC enzymes (Hela Nuclear Extract); type: biochemical
[2] = Water solubility; type: physicochemical; settings: thermodynamic from solid; distilled water at room temperature, visual inspection
Experimental: To measure water solubility, to approximately 10 mg of a sample in a tube-stoppered 10 mL graduated cylinder, increasing volumes of distilled water at room temperature were added according to the steps shown in the table below:
After each addition of water to give the indicated total volume, the mixture was vortexed or sonicated for 1 min and was visually inspected for any undissolved parts of the sample. If, after a total of 10 mL of water had been added (step 5), the sample or parts of it remained undissolved, the contents of the measuring cylinder was transferred to a 100 mL measuring cylinder which was then filled up with water up to 100 mL (20 ml, 25 ml, 50 ml, 100 ml) and shaken. The approximate solubility was given in the table under that volume of added water in which complete dissolution of the sample occurred. If the substance was still apparently insoluble, further dilution was undertaken to ascertain whether the column elution or the flask solubility method should be used.

[3] = system: 60 cancer cell lines; assay: NCI-60 DTP human tumor cell line screen at 10 μM, whole panel; type: cell-based; settings: for Growth %, Median: 10 μM single dose, median over cell lines; for mean growth percent in the 60 cancer cell lines: single dose of about 10 μM
Experimental: (§1) NL-101 and CY-102 was sent to U.S. National Cancer Institute (NCI) for NCI 60-cell line screening using a single compound dose (10 μM).
The human tumor cell lines of the cancer screening panel were grown in RPMI 1640 medium containing 5% fetal bovine serum (5% FBS) and 2 mM L-glutamine. For a typical screening experiment, cells were inoculated into 96-well microtiter plates in 100 μL, at plating densities ranging from 5,000 to 40,000 cells/well depending on the doubling time of individual cell lines. After cell inoculation, the microtiter plates were incubated at 37° C., 5% CO2, 95% air, and 100% relative humidity for 24 h prior to addition of experimental compounds. After 24 hr, two plates of each cell line were fixed in situ with TCA, to represent a measurement of the cell population for each cell line at the time of drug addition (Tz). Experimental drugs were solubilized in dimethyl sulfoxide at 400-fold the desired final maximum test concentration and stored frozen prior to use. At the time of drug addition, an aliquot of frozen concentrate was thawed and diluted to twice the desired final maximum test concentration with complete medium containing 50 μg/ml gentamicin. Aliquots of 100 μL of these different drug dilutions were added to the appropriate microtiter wells already containing 100 μL of medium, resulting in the required final drug concentrations.
Following drug addition, the plates were incubated for an additional 48 hrs at 37° C., 5% CO2, 95% air, and 100% relative humidity. For adherent cells, the assay was terminated by the addition of cold TCA. Cells were then fixed in situ by the gentle addition of 50 μL of cold 50% (w/v) TCA (final concentration, 10% TCA) and incubated for 60 minutes at 4° C. The supernatant was discarded, and the plates were washed five times with tap water and air dried. Sulforhodamine B (SRB) solution (100 μL) at 0.4% (w/v) in 1% acetic acid was added to each well, and plates were incubated for 10 minutes at room temperature. After staining, unbound dye was removed by washing five times with 1% acetic acid and the plates were air dried. Bound stain was subsequently solubilized with 10 mM trizma base, and the absorbance was read on an automated plate reader at a wavelength of 515 nm. […]
(§2) Using the seven absorbance measurements [time zero, (Tz), control growth, (C), and test growth in the presence of drug at the 10 μM concentration levels (Ti)], percentage growth was calculated at each of the drug concentrations levels. Percentage growth inhibition was calculated as: [(Ti−Tz)/(C−Tz)]×100 for which Ti>/=Tz or [(Ti−Tz)/Tz]×100 for which Ti<Tz.

[4] = system: K-562; assay: NCI-60 screen at 10 μM: K-562; type: cell-based, human; settings: Leukemia K-562; 10 μM single dose; 48 hrs
Experimental: as §1
(§3) The human tumor cell lines of the cancer screening panel were grown in RPMI 1640 medium containing 5% fetal bovine serum (5% FBS) and 2 mM L-glutamine. For a typical screening experiment, cells were inoculated into 96-well microtiter plates in 100 μL, at plating densities ranging from 5,000 to 40,000 cells/well depending on the doubling time of individual cell lines. After cell inoculation, the microtiter plates were incubated at 37° C., 5% CO2, 95% air, and 100% relative humidity for 24 h prior to addition of experimental compounds. […]
(§4) Following drug addition, the plates were incubated for an additional 48 hrs at 37° C., 5% CO2, 95% air, and 100% relative humidity. […] Bound stain was subsequently solubilized with 10 mM trizma base, and the absorbance was read on an automated plate reader at a wavelength of 515 nm. […]
as §2

[5] = system: NCI-H226; assay: NCI-60 screen at 10 μM: NCI-H226; type: cell-based, human; settings: NSCLC NCI-H226; 10 μM single dose; 48 hrs
Experimental: as §1, §3, §4, §2

[6] = system: COLO 205; assay: NCI-60 screen at 10 μM: COLO 205; type: cell-based, human; settings: Colon Cancer COLO 205; 10 μM single dose; 48 hrs
Experimental: as §1, §3, §4, §2

[7] = system: MDA-MB-435; assay: NCI-60 screen at 10 μM: MDA-MB-435; type: cell-based, human; settings: Melanoma MDA-MB-435; 10 μM single dose; 48 hrs
Experimental: as §1, §3, §4, §2

[8] = system: SK-MEL-28; assay: NCI-60 screen at 10 μM: SK-MEL-28; type: cell-based, human; settings: Melanoma SK-MEL-28; 10 μM single dose; 48 hrs
Experimental: as §1, §3, §4, §2

[9] = system: TK-10; assay: NCI-60 screen at 10 μM: TK-10; type: cell-based, human; settings: Renal Cancer TK-10; 10 μM single dose; 48 hrs
Experimental: as §1, §3, §4, §2

[10] = system: MDA-MB-231; assay: NCI-60 screen at 10 μM: MDA-MB-231; type: cell-based, human; settings: Breast Cancer MDA-MB-231; 10 μM single dose; 48 hrs
Experimental: as §1, §3, §4, §2

[11] = system: BT-549; assay: NCI-60 screen at 10 μM: BT-549; type: cell-based, human; settings: Breast Cancer BT-549; 10 μM single dose; 48 hrs
Experimental: as §1, §3, §4, §2

[12] = biological target: hERG (Human Ether-á-go-go-Related-Gene) (Homo sapiens, UniProt Q12809)
[13] = system: NCI-60 cell lines; assay: NCI-60 cell line panel screening of NL-101 (NSC#751447); type: cell-based, human
[14] = system: CCRF-CEM; assay: NCI-60 screen at 10 μM: CCRF-CEM; type: cell-based, human; settings: Leukemia CCRF-CEM; 10 μM single dose; 48 hrs
Experimental: as §1, §3, §4, §2

[15] = system: EKVX; assay: NCI-60 screen at 10 μM: EKVX; type: cell-based, human; settings: NSCLC EKVX; 10 μM single dose; 48 hrs
Experimental: as §1, §3, §4, §2

[16] = system: NCI-H522; assay: NCI-60 screen at 10 μM: NCI-H522; type: cell-based, human; settings: NSCLC NCI-H522; 10 μM single dose; 48 hrs
Experimental: as §1, §3, §4, §2

[17] = system: SF-539; assay: NCI-60 screen at 10 μM: SF-539; type: cell-based, human; settings: CNS Cancer (Glioma) SF-539; 10 μM single dose; 48 hrs
Experimental: as §1, §3, §4, §2

Sequence of hERG (Human Ether-á-go-go-Related-Gene) (Q12809 whole entry): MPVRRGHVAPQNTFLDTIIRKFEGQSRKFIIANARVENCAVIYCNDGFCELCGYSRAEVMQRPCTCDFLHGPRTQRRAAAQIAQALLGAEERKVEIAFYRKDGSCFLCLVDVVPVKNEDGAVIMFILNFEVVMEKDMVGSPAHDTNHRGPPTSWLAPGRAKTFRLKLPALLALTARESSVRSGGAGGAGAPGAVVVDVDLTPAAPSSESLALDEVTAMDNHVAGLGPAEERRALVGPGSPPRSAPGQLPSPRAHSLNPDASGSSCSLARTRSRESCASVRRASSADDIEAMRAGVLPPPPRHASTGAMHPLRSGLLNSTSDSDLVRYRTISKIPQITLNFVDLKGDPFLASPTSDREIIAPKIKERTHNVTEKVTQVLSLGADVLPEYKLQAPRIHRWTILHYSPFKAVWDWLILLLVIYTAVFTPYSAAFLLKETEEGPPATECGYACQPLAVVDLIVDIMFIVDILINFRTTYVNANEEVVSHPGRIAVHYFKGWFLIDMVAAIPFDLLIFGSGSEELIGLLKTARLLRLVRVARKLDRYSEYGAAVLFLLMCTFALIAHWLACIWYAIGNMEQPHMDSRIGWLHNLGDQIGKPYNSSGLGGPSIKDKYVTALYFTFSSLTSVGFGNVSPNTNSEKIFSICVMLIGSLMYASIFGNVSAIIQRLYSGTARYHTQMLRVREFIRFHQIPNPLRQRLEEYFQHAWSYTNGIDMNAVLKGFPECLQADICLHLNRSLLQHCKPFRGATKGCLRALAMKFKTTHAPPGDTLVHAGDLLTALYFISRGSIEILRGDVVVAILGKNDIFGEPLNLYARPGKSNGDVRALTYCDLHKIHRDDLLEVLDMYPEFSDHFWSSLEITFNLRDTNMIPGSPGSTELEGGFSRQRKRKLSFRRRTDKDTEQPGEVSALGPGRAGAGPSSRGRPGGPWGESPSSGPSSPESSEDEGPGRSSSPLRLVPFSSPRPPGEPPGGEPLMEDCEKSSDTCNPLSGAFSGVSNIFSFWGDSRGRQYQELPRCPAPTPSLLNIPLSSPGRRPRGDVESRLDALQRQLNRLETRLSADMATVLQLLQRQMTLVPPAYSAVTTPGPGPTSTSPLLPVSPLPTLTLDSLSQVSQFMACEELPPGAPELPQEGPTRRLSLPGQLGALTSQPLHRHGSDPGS

SMILES	IC50 ([1]; Hela nuclear extract, N/A* = No HDAC activity up to highest testing concentration of 10 μM)	fold more potent than SAHA in the HDAC (nuclear extract) assay ([1]; versus SAHA)	solubility at 1 min [2]	Growth %, Median [3]	mean growth percent in the 60 cancer cell lines [3]	Growth % [4]	Growth % [5]	Growth % [6]	Growth % [7]	Growth % [8]	Growth % [9]	Growth % [10]	Growth % [11]	fold less cardiotoxicity compared to NL-101 (hERG assay) [12]	IC50 ([13]; Homo sapiens, on average, read-out: average cellular IC50 in the 60 cancer cell lines)	fold more potent than Bendamustine in the NCI-60 cell lines ([13]; versus Bendamustine)	Growth % [14]	Growth % [15]	Growth % [16]	Growth % [17]
Cn1c(CCNCc2ccc(/C=C/C(=O)NO)cc2)nc2cc(N(CCCl)CCCl)ccc21 [CY-102]	3.5 nM	about 10 fold	> 20 mg/mL	−28.5%	−28%	1.07%	−20.77%	−81.34%	−73.24%	−21.36%	−28.81%	−35.33%	−33.26%	5-10 fold	–	–	–	–	–	–
Cn1c(CCCCCCC(=O)NO)nc2cc(N(CCCl)CCCl)ccc21 [NL-101]	–	–	–	36.35%	36%	31.63%	60.27%	54.36%	49.07%	59.32%	48.48%	72.24%	79.21%	–	~2000 nM	25-100 fold	17.16%	92.48%	−5.90%	23.72%
